Patent US20260000656A1, “ANTIFUNGAL AGENTS WITH ENHANCED ACTIVITY IN ACIDIC PH” (Scynexis, Inc., priority 2017, published 2026)
Converted amounts (≈) assume the structure as drawn. Read-outs that look alike come from different tables or passages of the source.

System: C. albicans isolates
Test: Broth microdilution susceptibility (CLSI M27-A3) at different medium pH
Assay type: cell-based, Candida albicans
Details: for MIC50: read-out: MIC50
Description: Ten strains each of C. glabrata and C. albicans vaginal isolates were tested. The strains were obtained from recent clinical trial patients with vulvovaginal candidiasis (VVC) prior to treatment. Candida strains were obtained from the Mycology Reference Library (MRL) at Case Western Reserve University School of Medicine, Ohio, United States.
Susceptibility testing was performed using a broth microdilution method, according to CLSI M27-A3 guidelines (CLSI. 2008. Reference Method for Broth Dilution Antifungal Susceptibility Testing of Yeasts; Approved Standard—Third Edition. Clinical and Laboratory Standards Institute, CLSI document M27-A3). Antifungals and concentrations tested were SCY-078 and micafungin (both at concentrations within the range of 0.015 to 8 μg/ml) and fluconazole (at concentrations within the range of 0.125 to 64 μg/ml). A 0.1-ml C. albicans and C. glabrata inoculum of 0.5-2.5×10^3 blastospores/ml in RPMI 1640 medium was added to each microdilution well. ATCC strains of Candida parapsilosis and Candida krusei QC isolates were also included concurrently to ensure quality control. Antifungal susceptibility testing was carried out for each isolate in RPMI 1640 at pH 7 (to mimic RPMI medium used in testing the susceptibility of yeast by the CLSI M-27A3 document), pH 5.7, and pH 4.5 (to mimic the pH of the vaginal cavity) by adjusting the pH of the media using NaOH or HCl. […] Agents Chemother., 43: 1383-1386 (1999).
[…] SCY-078 powder was manufactured by Avista, Laboratories, NC. Micafungin and fluconazole were sourced from LGM Pharma.

[1] = 50% inhibition, pH 4.5, 24 h, 10 vaginal isolates

Which results are given for `CC(C)[C@@H](C)[C@@]1(C)CC[C@]2(C)[C@H]3CC[C@@H]4[C@@]5(COC[C@]4(C)[C@@H](OC[C@](C)(N)C(C)(C)C)[C@H](n4ncnc4-c4ccncc4)C5)C3=CC[C@@]2(C)[C@@H]1C(=O)O` [SCY-078]?
MIC90 [1]: < 0.016 µg/mL; MIC range [1]: <0.016 to 0.031 µg/mL; MIC range (50% inhibition, pH 5.72, 24 h, 10 vaginal isolates): 0.125 to .25 µg/mL; MIC range (50% inhibition, pH 7.0, 24 h, 10 vaginal isolates): 0.125 to 0.5 µg/mL; MIC range (100% inhibition, pH 4.5, 24 hours, 10 isolates): <0.016 to 4 µg/mL; MIC range (100% inhibition, pH 5.72, 24 hours, 10 isolates): 0.25 to 2 µg/mL; MIC range (100% inhibition, pH 7.0, 24 hours, 10 isolates): 0.25 to 4 µg/mL; reduction in MIC50 at pH 4.5 compared to the MIC50 at pH 7.0 (C. albicans isolates): 16 fold; MIC50 (Candida albicans, 24 h, pH 4.5, 50% inhibition, pH 4.5, 24 h, 10 vaginal isolates): < 0.016 µg/mL; MIC90 (Candida albicans, 24 h, pH 4.5, 50% inhibition, pH 4.5, 24 h, 10 vaginal isolates, read-out: MIC90): < 0.016 µg/mL; MIC50 (Candida albicans, 24 h, pH 4.5, 100% inhibition, pH 4.5, 24 hours, 10 isolates): 0.031 µg/mL (≈ 0.0425 µM); MIC90 (Candida albicans, 24 h, pH 4.5, 100% inhibition, pH 4.5, 24 hours, 10 isolates, read-out: MIC90): 0.031 µg/mL (≈ 0.0425 µM); MIC (Candida albicans, 24 h, pH 4.5, C. albicans MRL 34366, pH 4.5, 24 hours, read-out: MIC (50% inhibition)): 0.031 µg/mL (≈ 0.0425 µM); MIC (Candida albicans, 24 h, pH 4.5, C. albicans MRL 34366, pH 4.5, 24 hours, read-out: MIC (100% inhibition)): 0.031 µg/mL (≈ 0.0425 µM); MIC (Candida albicans, 24 h, pH 4.5, C. albicans MRL 34367, pH 4.5, 24 hours, read-out: MIC (50% inhibition)): < 0.016 µg/mL; MIC (Candida albicans, 24 h, pH 4.5, C. albicans MRL 34367, pH 4.5, 24 hours, read-out: MIC (100% inhibition)): 0.031 µg/mL (≈ 0.0425 µM); MIC (Candida albicans, 24 h, pH 4.5, C. albicans MRL 34372, pH 4.5, 24 hours, read-out: MIC (50% inhibition)): < 0.016 µg/mL; MIC (Candida albicans, 24 h, pH 4.5, C. albicans MRL 34372, pH 4.5, 24 hours, read-out: MIC (100% inhibition)): < 0.016 µg/mL; MIC (Candida albicans, 24 h, pH 4.5, C. albicans MRL 34373, pH 4.5, 24 hours, read-out: MIC (50% inhibition)): < 0.016 µg/mL; MIC (Candida albicans, 24 h, pH 4.5, C. albicans MRL 34373, pH 4.5, 24 hours, read-out: MIC (100% inhibition)): < 0.016 µg/mL; MIC (Candida albicans, 24 h, pH 4.5, C. albicans MRL 34374, pH 4.5, 24 hours, read-out: MIC (50% inhibition)): < 0.016 µg/mL; MIC (Candida albicans, 24 h, pH 4.5, C. albicans MRL 34374, pH 4.5, 24 hours, read-out: MIC (100% inhibition)): < 0.016 µg/mL; MIC (Candida albicans, 24 h, pH 4.5, C. albicans MRL 34385, pH 4.5, 24 hours, read-out: MIC (50% inhibition)): < 0.016 µg/mL; MIC (Candida albicans, 24 h, pH 4.5, C. albicans MRL 34385, pH 4.5, 24 hours, read-out: MIC (100% inhibition)): 0.031 µg/mL (≈ 0.0425 µM); MIC (Candida albicans, 24 h, pH 4.5, C. albicans MRL 34389, pH 4.5, 24 hours, read-out: MIC (50% inhibition)): < 0.016 µg/mL; MIC (Candida albicans, 24 h, pH 4.5, C. albicans MRL 34389, pH 4.5, 24 hours, read-out: MIC (100% inhibition)): 0.031 µg/mL (≈ 0.0425 µM); MIC (Candida albicans, 24 h, pH 4.5, C. albicans MRL 34399, pH 4.5, 24 hours, read-out: MIC (50% inhibition)): < 0.016 µg/mL; MIC (Candida albicans, 24 h, pH 4.5, C. albicans MRL 34399, pH 4.5, 24 hours, read-out: MIC (100% inhibition)): 0.031 µg/mL (≈ 0.0425 µM); MIC (Candida albicans, 24 h, pH 4.5, C. albicans MRL 34408, pH 4.5, 24 hours, read-out: MIC (50% inhibition)): < 0.016 µg/mL; MIC (Candida albicans, 24 h, pH 4.5, C. albicans MRL 34408, pH 4.5, 24 hours, read-out: MIC (100% inhibition)): 4 µg/mL (≈ 5.48 µM); MIC (Candida albicans, 24 h, pH 4.5, C. albicans MRL 34449, pH 4.5, 24 hours, read-out: MIC (50% inhibition)): < 0.016 µg/mL; MIC (Candida albicans, 24 h, pH 4.5, C. albicans MRL 34449, pH 4.5, 24 hours, read-out: MIC (100% inhibition)): 0.031 µg/mL (≈ 0.0425 µM); MIC50 (Candida albicans, 24 h, pH 5.72, 50% inhibition, pH 5.72, 24 h, 10 vaginal isolates): 0.25 µg/mL (≈ 0.342 µM); MIC90 (Candida albicans, 24 h, pH 5.72, 50% inhibition, pH 5.72, 24 h, 10 vaginal isolates, read-out: MIC90): 0.25 µg/mL (≈ 0.342 µM); MIC50 (Candida albicans, 24 h, pH 5.72, 100% inhibition, pH 5.72, 24 hours, 10 isolates): 0.25 µg/mL (≈ 0.342 µM); MIC90 (Candida albicans, 24 h, pH 5.72, 100% inhibition, pH 5.72, 24 hours, 10 isolates, read-out: MIC90): 0.5 µg/mL (≈ 0.685 µM); MIC (Candida albicans, 24 h, pH 5.72, C. albicans MRL 34366, pH 5.72, 24 hours, read-out: MIC (50% inhibition)): 0.25 µg/mL (≈ 0.342 µM); MIC (Candida albicans, 24 h, pH 5.72, C. albicans MRL 34366, pH 5.72, 24 hours, read-out: MIC (100% inhibition)): 0.5 µg/mL (≈ 0.685 µM); MIC (Candida albicans, 24 h, pH 5.72, C. albicans MRL 34367, pH 5.72, 24 hours, read-out: MIC (50% inhibition)): 0.125 µg/mL (≈ 0.171 µM); MIC (Candida albicans, 24 h, pH 5.72, C. albicans MRL 34367, pH 5.72, 24 hours, read-out: MIC (100% inhibition)): 0.5 µg/mL (≈ 0.685 µM)
